Target: T1, human capsaicin receptor (Homo sapiens, UniProt Q8NER1)
T1 construct: expressed in transfected cells
Experiment: Calcium mobilization assay, determination of antagonist activity (Example 6)
Type: cell-based
Details: Table III; assay provided in Example 6; cells expressing human capsaicin receptor, capsaicin at EC50
Procedure, shortened: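 Stable HEK293 clones expressing full-length human capsaicin receptor, loaded with Fluo-3 AM in KRH buffer pH 7.4 (1–2 h, 37 °C). Test compound (1–5 μM final) preincubated 0.5–6 h at room temperature in the dark, then capsaicin added at its EC50. FLIPR/Fluoroskan calcium signal; IC50 as concentration halving the capsaicin response.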

T1 sequence (Q8NER1 whole entry): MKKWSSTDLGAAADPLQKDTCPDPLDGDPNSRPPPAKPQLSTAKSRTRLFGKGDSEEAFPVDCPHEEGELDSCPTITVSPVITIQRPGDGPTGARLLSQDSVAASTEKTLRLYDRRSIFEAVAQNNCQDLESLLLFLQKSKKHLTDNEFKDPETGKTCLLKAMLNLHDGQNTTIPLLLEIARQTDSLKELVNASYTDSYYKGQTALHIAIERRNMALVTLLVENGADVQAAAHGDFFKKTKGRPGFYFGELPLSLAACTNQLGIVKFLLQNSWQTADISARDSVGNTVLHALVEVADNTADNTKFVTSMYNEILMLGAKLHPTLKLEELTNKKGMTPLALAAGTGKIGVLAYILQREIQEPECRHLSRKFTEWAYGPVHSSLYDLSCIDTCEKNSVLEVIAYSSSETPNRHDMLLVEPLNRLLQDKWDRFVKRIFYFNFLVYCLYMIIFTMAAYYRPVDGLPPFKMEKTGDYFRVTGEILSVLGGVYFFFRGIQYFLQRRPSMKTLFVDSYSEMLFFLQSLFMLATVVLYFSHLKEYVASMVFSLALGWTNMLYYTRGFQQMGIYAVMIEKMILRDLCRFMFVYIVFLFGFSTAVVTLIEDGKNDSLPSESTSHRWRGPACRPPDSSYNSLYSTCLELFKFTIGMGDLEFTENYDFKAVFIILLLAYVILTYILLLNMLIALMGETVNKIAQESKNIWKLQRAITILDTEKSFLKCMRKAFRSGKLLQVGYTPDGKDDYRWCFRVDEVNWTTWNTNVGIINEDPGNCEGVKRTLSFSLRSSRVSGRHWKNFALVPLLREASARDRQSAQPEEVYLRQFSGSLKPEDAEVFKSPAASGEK

Structure (SMILES)	IC50 [µM]
CC1(C)CCN1c1cc(C(F)(F)F)c(-c2cnc3c(Nc4ccc(C(F)(F)F)cn4)ccnc3n2)nn1 [Compound 131, 3-[6-(2,2-dimethylazetidin-1-yl)-4-(trifluoromethyl)pyridazin-3-yl]-N-[5-(trifluoromethyl)pyridin-2-yl]pyrido[2,3-b]pyrazin-8-amine]	< 1
CN(C)C1CCCN(c2cc(C(F)(F)F)c(-c3cnc4c(Nc5ccc(C(F)(F)F)cn5)ccnc4n3)nn2)C1 (centres unmarked) [Compound 132, 3-{6-[3-(dimethylamino)piperidin-1-yl]-4-(trifluoromethyl)pyridazin-3-yl}-N-[5-(trifluoromethyl)pyridin-2-yl]pyrido[2,3-b]pyrazin-8-amine]	< 1
CCCN(CCO)c1cc(C(F)(F)F)c(-c2cnc3c(Nc4ccc(C(F)(F)F)cn4)ccnc3n2)nn1 [Compound 134, 2-{propyl[5-(trifluoromethyl)-6-(8-{[5-(trifluoromethyl)pyridin-2-yl]amino}pyrido[2,3-b]pyrazin-3-yl)pyridazin-3-yl]amino}ethanol]	< 1
CN(CCO)c1cc(C(F)(F)F)c(-c2cnc3c(Nc4ccc(C(F)(F)F)cn4)ccnc3n2)nn1 [Compound 135, 2-{methyl[5-(trifluoromethyl)-6-(8-{[5-(trifluoromethyl)pyridin-2-yl]amino}pyrido[2,3-b]pyrazin-3-yl)pyridazin-3-yl]amino}ethanol]	< 1
CN(CCCO)c1cc(C(F)(F)F)c(-c2cnc3c(Nc4ccc(C(F)(F)F)cn4)ccnc3n2)nn1 [Compound 137, 3-{methyl[5-(trifluoromethyl)-6-(8-{[5-(trifluoromethyl)pyridin-2-yl]amino}pyrido[2,3-b]pyrazin-3-yl)pyridazin-3-yl]amino}propan-1-ol]	< 1
CN(C)CCCNc1cc(C(F)(F)F)c(-c2cnc3c(Nc4ccc(C(F)(F)F)cn4)ccnc3n2)nn1 [Compound 139, N,N-dimethyl-N′-[5-(trifluoromethyl)-6-(8-{[5-(trifluoromethyl)pyridin-2-yl]amino}pyrido[2,3-b]pyrazin-3-yl)pyridazin-3-yl]propane-1,3-diamine]	< 1
CN1CCN(c2cc(C(F)(F)F)c(-c3cnc4c(Nc5ccc(C(F)(F)F)cn5)ccnc4n3)nn2)CC1 [Compound 145, 3-[6-(4-methylpiperazin-1-yl)-4-(trifluoromethyl)pyridazin-3-yl]-N-[5-(trifluoromethyl)pyridin-2-yl]pyrido[2,3-b]pyrazin-8-amine]	< 1
CN(C)CCN(C)c1cc(C(F)(F)F)c(-c2cnc3c(Nc4ccc(C(F)(F)F)cn4)ccnc3n2)nn1 [Compound 150, N,N,N′-trimethyl-N′-[5-(trifluoromethyl)-6-(8-{[5-(trifluoromethyl)pyridin-2-yl]amino}pyrido[2,3-b]pyrazin-3-yl)pyridazin-3-yl]ethane-1,2-diamine]	< 1
C=CCNc1cc(C(F)(F)F)c(-c2cnc3c(Nc4ccc(C(F)(F)F)cn4)ccnc3n2)nn1 [Compound 152, 3-[6-(allylamino)-4-(trifluoromethyl)pyridazin-3-yl]-N-[5-(trifluoromethyl)pyridin-2-yl]pyrido[2,3-b]pyrazin-8-amine]	< 1
CCCCCNc1cc(C(F)(F)F)c(-c2cnc3c(Nc4ccc(C(F)(F)F)cn4)ccnc3n2)nn1 [Compound 153, 3-[6-(pentylamino)-4-(trifluoromethyl)pyridazin-3-yl]-N-[5-(trifluoromethyl)pyridin-2-yl]pyrido[2,3-b]pyrazin-8-amine]	< 1
CCC(C)CNc1cc(C(F)(F)F)c(-c2cnc3c(Nc4ccc(C(F)(F)F)cn4)ccnc3n2)nn1 (centres unmarked) [Compound 154, 3-{6-[(2-methylbutyl)amino]-4-(trifluoromethyl)pyridazin-3-yl}-N-[5-(trifluoromethyl)pyridin-2-yl]pyrido[2,3-b]pyrazin-8-amine]	< 1
FC(F)(F)CNc1cc(C(F)(F)F)c(-c2cnc3c(Nc4ccc(C(F)(F)F)cn4)ccnc3n2)nn1 [Compound 155, 3-{6-[(2,2,2-trifluoroethyl)amino]-4-(trifluoromethyl)pyridazin-3-yl}-N-[5-(trifluoromethyl)pyridin-2-yl]pyrido[2,3-b]pyrazin-8-amine]	< 1
CC(C)Nc1cc(C(F)(F)F)c(-c2cnc3c(Nc4ccc(C(F)(F)F)cn4)ccnc3n2)nn1 [Compound 157, 3-[6-(isopropylamino)-4-(trifluoromethyl)pyridazin-3-yl]-N-[5-(trifluoromethyl)pyridin-2-yl]pyrido[2,3-b]pyrazin-8-amine]	< 1
CCCC(C)Nc1cc(C(F)(F)F)c(-c2cnc3c(Nc4ccc(C(F)(F)F)cn4)ccnc3n2)nn1 (centres unmarked) [Compound 158, 3-{6-[(1-methylbutyl)amino]-4-(trifluoromethyl)pyridazin-3-yl}-N-[5-(trifluoromethyl)pyridin-2-yl]pyrido[2,3-b]pyrazin-8-amine]	< 1
CC(C)(C)Nc1cc(C(F)(F)F)c(-c2cnc3c(Nc4ccc(C(F)(F)F)cn4)ccnc3n2)nn1 [Compound 161, 3-[6-(tert-butylamino)-4-(trifluoromethyl)pyridazin-3-yl]-N-[5-(trifluoromethyl)pyridin-2-yl]pyrido[2,3-b]pyrazin-8-amine]	< 1
COCCNc1cc(C(F)(F)F)c(-c2cnc3c(Nc4ccc(C(F)(F)F)cn4)ccnc3n2)nn1 [Compound 163, 3-{6-[(2-methoxyethyl)amino]-4-(trifluoromethyl)pyridazin-3-yl}-N-[5-(trifluoromethyl)pyridin-2-yl]pyrido[2,3-b]pyrazin-8-amine]	< 1
COCCCNc1cc(C(F)(F)F)c(-c2cnc3c(Nc4ccc(C(F)(F)F)cn4)ccnc3n2)nn1 [Compound 164, 3-{6-[(3-methoxypropyl)amino]-4-(trifluoromethyl)pyridazin-3-yl}-N-[5-(trifluoromethyl)pyridin-2-yl]pyrido[2,3-b]pyrazin-8-amine]	< 1
COCC(C)Nc1cc(C(F)(F)F)c(-c2cnc3c(Nc4ccc(C(F)(F)F)cn4)ccnc3n2)nn1 (centres unmarked) [Compound 165, 3-{6-[(2-methoxy-1-methylethyl)amino]-4-(trifluoromethyl)pyridazin-3-yl}-N-[5-(trifluoromethyl)pyridin-2-yl]pyrido[2,3-b]pyrazin-8-amine]	< 1
CCC(COC)Nc1cc(C(F)(F)F)c(-c2cnc3c(Nc4ccc(C(F)(F)F)cn4)ccnc3n2)nn1 (centres unmarked) [Compound 166, 3-[6-{[1-(methoxymethyl)propyl]amino}-4-(trifluoromethyl)pyridazin-3-yl]-N-[5-(trifluoromethyl)pyridin-2-yl]pyrido[2,3-b]pyrazin-8-amine]	< 1
CN(C)C(=O)CNc1cc(C(F)(F)F)c(-c2cnc3c(Nc4ccc(C(F)(F)F)cn4)ccnc3n2)nn1 [Compound 167, N,N-dimethyl-N2-[5-(trifluoromethyl)-6-(8-{[5-(trifluoromethyl)pyridin-2-yl]amino}pyrido[2,3-b]pyrazin-3-yl)pyridazin-3-yl]glycinamide]	< 1
OCCNc1cc(C(F)(F)F)c(-c2cnc3c(Nc4ccc(C(F)(F)F)cn4)ccnc3n2)nn1 [Compound 168, 2-{[5-(trifluoromethyl)-6-(8-{[5-(trifluoromethyl)pyridin-2-yl]amino}pyrido[2,3-b]pyrazin-3-yl)pyridazin-3-yl]amino}ethanol]	< 1
OCCCNc1cc(C(F)(F)F)c(-c2cnc3c(Nc4ccc(C(F)(F)F)cn4)ccnc3n2)nn1 [Compound 169, 3-{[5-(trifluoromethyl)-6-(8-{[5-(trifluoromethyl)pyridin-2-yl]amino}pyrido[2,3-b]pyrazin-3-yl)pyridazin-3-yl]amino}propan-1-ol]	< 1
CC(C)(CO)Nc1cc(C(F)(F)F)c(-c2cnc3c(Nc4ccc(C(F)(F)F)cn4)ccnc3n2)nn1 [Compound 171, 2-methyl-2-{[5-(trifluoromethyl)-6-(8-{[5-(trifluoromethyl)pyridin-2-yl]amino}pyrido[2,3-b]pyrazin-3-yl)pyridazin-3-yl]amino}propan-1-ol]	< 1
OCCCCNc1cc(C(F)(F)F)c(-c2cnc3c(Nc4ccc(C(F)(F)F)cn4)ccnc3n2)nn1 [Compound 172, 4-{[5-(trifluoromethyl)-6-(8-{[5-(trifluoromethyl)pyridin-2-yl]amino}pyrido[2,3-b]pyrazin-3-yl)pyridazin-3-yl]amino}butan-1-ol]	< 1
CCC(O)CNc1cc(C(F)(F)F)c(-c2cnc3c(Nc4ccc(C(F)(F)F)cn4)ccnc3n2)nn1 (centres unmarked) [Compound 173, 1-{[5-(trifluoromethyl)-6-(8{[5-(trifluoromethyl)pyridin-2-yl]amino}pyrido[2,3-b]pyrazin-3-yl)pyridazin-3-yl]amino}butan-2-ol]	< 1
CC(O)CCNc1cc(C(F)(F)F)c(-c2cnc3c(Nc4ccc(C(F)(F)F)cn4)ccnc3n2)nn1 (centres unmarked) [Compound 174, 4-{[5-(trifluoromethyl)-6-(8-{[5-(trifluoromethyl)pyridin-2-yl]amino}pyrido[2,3-b]pyrazin-3-yl)pyridazin-3-yl]amino}butan-2-ol]	< 1
FC(F)(F)c1ccc(Nc2ccnc3nc(-c4nnc(N5CCCCC5)cc4C(F)(F)F)cnc23)nc1 [Compound 176, 3-[6-piperidin-1-yl-4-(trifluoromethyl)pyridazin-3-yl]-N-[5-(trifluoromethyl)pyridin-2-yl]pyrido[2,3-b]pyrazin-8-amine]	< 1
CC1CCN(c2cc(C(F)(F)F)c(-c3cnc4c(Nc5ccc(C(F)(F)F)cn5)ccnc4n3)nn2)CC1 [Compound 177, 3-[6-(4-methylpiperidin-1-yl)-4-(trifluoromethyl)pyridazin-3-yl]-N-[5-(trifluoromethyl)pyridin-2-yl]pyrido[2,3-b]pyrazin-8-amine]	< 1
FC(F)(F)c1ccc(Nc2ccnc3nc(-c4nnc(N5CCCCCC5)cc4C(F)(F)F)cnc23)nc1 [Compound 178, 3-[6-azepan-1-yl-4-(trifluoromethyl)pyridazin-3-yl]-N-[5-(trifluoromethyl)pyridin-2-yl]pyrido[2,3-b]pyrazin-8-amine]	< 1
